Changes are numbered by the printed parent chain. In names and notes the source's numbering stands.
Tests used:
hDAT Y88F/H547A [1] = molecular target: T1, hDAT Y88F/H547A (Homo sapiens, UniProt Q01959, H547A/Y88F); experiment: [3H]DA uptake in PC12 cells transfected with Y88F/H547A hDAT; assay type: cell-based
T1 construct: expressed in transfected cells; host or cells: rat PC12 cells (ATCC CRL-1721), pcDNA3.1+
T1 sequence (Q01959 1-620 Y88F/H547A): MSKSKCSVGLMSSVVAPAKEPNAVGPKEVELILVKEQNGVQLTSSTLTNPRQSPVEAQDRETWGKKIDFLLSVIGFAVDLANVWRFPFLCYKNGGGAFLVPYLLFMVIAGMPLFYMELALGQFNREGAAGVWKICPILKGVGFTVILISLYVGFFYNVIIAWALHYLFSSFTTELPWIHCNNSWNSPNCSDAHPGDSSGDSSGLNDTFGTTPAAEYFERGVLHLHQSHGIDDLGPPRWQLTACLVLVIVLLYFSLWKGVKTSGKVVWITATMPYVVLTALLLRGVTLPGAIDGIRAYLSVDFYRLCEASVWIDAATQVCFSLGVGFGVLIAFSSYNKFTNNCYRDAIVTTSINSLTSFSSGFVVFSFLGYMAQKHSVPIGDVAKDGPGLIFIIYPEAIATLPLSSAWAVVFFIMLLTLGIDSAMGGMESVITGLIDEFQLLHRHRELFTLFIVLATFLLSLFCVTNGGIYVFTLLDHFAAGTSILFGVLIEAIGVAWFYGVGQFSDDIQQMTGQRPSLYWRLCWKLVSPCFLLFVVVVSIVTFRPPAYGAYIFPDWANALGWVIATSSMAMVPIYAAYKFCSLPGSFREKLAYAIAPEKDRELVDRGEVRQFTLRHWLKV
Experimental: (§1) In the current study, we used rat pheochromocytoma cells (PC12 cells, CRL-1721, American Type Culture Collection (ATCC), Manassas, VA), which were maintained in Dulbecco’s modified eagle medium (DMEM, Life Technologies, Carlsbad, CA) supplemented with 15% horse serum, 2.5% bovine calf serum, 2 mM glutamine and antibiotics, 100 U/mL penicillin and 100 µg/mL streptomycin. Cells were cultured at 37 °C in a 5% CO2 incubator. Once cells were growing to 100% confluence on plates, cells were seeded at a density of 1 × 10^5 cells/cm^2 in 24-well plates and transfected with WT hDAT or mutants by Lipofectamine 2000 (Life Technologies). Twenty-four hours after transfection, intact cells or cell suspensions were used for experiments.
(§2) Twenty-four hours after transfection, cells in 24-well plates were washed twice with Krebs-Ringer-HEPES (KRH) buffer (final concentration in mM: 125 NaCl, 5 KCl, 1.5 MgSO4, 1.25 CaCl2, 1.5 KH2PO4, 10 D-glucose, 25 HEPES, 0.1 EDTA, 0.1 pargyline, and 0.1 L-ascorbic acid; pH 7.4) and incubated with nomifensine (10 µM, final concentration) as nonspecific uptake for 10 min at room temperature. […] The reaction was terminated by removal of solution from wells and quickly washed three times with ice cold KRH buffer. Cells were then lysed in 500 μL of 1% SDS for an hour and radioactivity was measured using a liquid scintillation counter (Tri-Carb 2900TR; PerkinElmer Life and Analytical Sciences, Waltham, MA).
(§3) In brief, cells were dissociated with trypsin/EDTA (0.25%/0.1%, 1 mL for one 10 cm dish) and resuspended in culture medium and incubated at room temperature for 10 min. The dissociated cells were collected by centrifugation at 400 × g for 5 min at 4 °C and washed once with phosphate-buffered saline followed by additional 5 min centrifugation (400 × g, 4 °C). Finally, the resulted cell pellets were resuspended in KRH assay buffer. […] The update reaction was terminated by immediate filtration through Whatman GF/B glass filters (presoaked with 1 mM pyrocatechol for 3 h) followed by three washes with 3 mL of ice-cold KRH buffer containing pyrocatechol using a Brandel cell harvester (model M-48; Brandel Inc., Gaithersburg, MD). Radioactivity was determined as described above.

WT hDAT [2] = molecular target: T2, WT hDAT (Homo sapiens, UniProt Q01959); experiment: [3H]DA uptake in PC12 cells transfected with WT hDAT; assay type: cell-based
T2 construct: expressed in transfected cells; host or cells: rat PC12 cells (ATCC CRL-1721), pcDNA3.1+
Experimental: as §1, §2, §3

hDAT Y88F/H547A [3] = molecular target: T1, hDAT Y88F/H547A; experiment: [3H]WIN 35,428 binding in intact PC12 cells transfected with Y88F/H547A hDAT; details: Zn2+ 10 and 100 µM
WT hDAT [4] = molecular target: T2, WT hDAT; experiment: [3H]WIN 35,428 binding in intact PC12 cells transfected with WT hDAT
hDAT Y88F/H547A [5] = molecular target: T1, hDAT Y88F/H547A; experiment: AMPH-stimulated [3H]DA efflux, Y88F/H547A hDAT; assay type: cell-based; design: unit not given here; details: AMPH 5–250 µM, fractional release of cellular [3H]DA
hDAT H547A [6] = molecular target: T3, hDAT H547A (Homo sapiens, UniProt Q01959, H547A); experiment: AMPH-stimulated [3H]DA efflux, H547A hDAT; assay type: cell-based; details: AMPH 5–250 µM, fractional release of cellular [3H]DA
T3 construct: expressed in transfected cells; host or cells: rat PC12 cells (ATCC CRL-1721), pcDNA3.1+
Experimental: as §1

hDAT Y88F = molecular target: T4, hDAT Y88F (Homo sapiens, UniProt Q01959, Y88F); experiment: AMPH-stimulated [3H]DA efflux, Y88F hDAT; assay type: cell-based; details: AMPH 5–250 µM, fractional release of cellular [3H]DA
T4 construct: expressed in transfected cells; host or cells: rat PC12 cells (ATCC CRL-1721), pcDNA3.1+
T4 sequence (Q01959 1-620 Y88F): T1 sequence (Q01959 1-620 Y88F/H547A) with A547H
Experimental: as §1

hDAT Y88A = molecular target: T5, hDAT Y88A (Homo sapiens, UniProt Q01959, Y88A); experiment: AMPH-stimulated [3H]DA efflux, Y88A hDAT; assay type: cell-based; details: AMPH 5–250 µM, fractional release of cellular [3H]DA
T5 construct: expressed in transfected cells; host or cells: rat PC12 cells (ATCC CRL-1721)
T5 sequence (Q01959 1-620 Y88A): T1 sequence (Q01959 1-620 Y88F/H547A) with F88A, A547H
Experimental: as §1

WT hDAT [7] = molecular target: T2, WT hDAT; experiment: AMPH-stimulated [3H]DA efflux, WT hDAT; assay type: cell-based; details: AMPH 5–250 µM, fractional release of cellular [3H]DA
Experimental: as §1

hDAT Y88F/K92M/H547A = molecular target: T6, hDAT Y88F/K92M/H547A (Homo sapiens, UniProt Q01959, H547A/K92M/Y88F)
T6 sequence (Q01959 1-620 Y88F/K92M/H547A): T1 sequence (Q01959 1-620 Y88F/H547A) with K92M
Experimental: as §1
Twenty-four hours after transfection, cells in 24-well plates were washed twice with Krebs-Ringer-HEPES (KRH) buffer (final concentration in mM: 125 NaCl, 5 KCl, 1.5 MgSO4, 1.25 CaCl2, 1.5 KH2PO4, 10 D-glucose, 25 HEPES, 0.1 EDTA, 0.1 pargyline, and 0.1 L-ascorbic acid; pH 7.4) and incubated with nomifensine (10 µM, final concentration) as nonspecific uptake for 10 min at room temperature. […] Cells were then lysed in 500 μL of 1% SDS for an hour and radioactivity was measured using a liquid scintillation counter (Tri-Carb 2900TR; PerkinElmer Life and Analytical Sciences, Waltham, MA).

hDAT H547A [8] = molecular target: T3, hDAT H547A; details: 1 µM PMA; H547A mutant; cited from earlier work
WT hDAT [9] = molecular target: T2, WT hDAT; details: 1 µM PMA; cited from earlier work
[10] = substrate: NCCc1ccc(O)c(O)c1; experiment: cells, lysate or membranes; details: other: PC12 cells, Y88F/H547A; pH 7.4; 37.0 °C

T2 sequence (Q01959 whole entry): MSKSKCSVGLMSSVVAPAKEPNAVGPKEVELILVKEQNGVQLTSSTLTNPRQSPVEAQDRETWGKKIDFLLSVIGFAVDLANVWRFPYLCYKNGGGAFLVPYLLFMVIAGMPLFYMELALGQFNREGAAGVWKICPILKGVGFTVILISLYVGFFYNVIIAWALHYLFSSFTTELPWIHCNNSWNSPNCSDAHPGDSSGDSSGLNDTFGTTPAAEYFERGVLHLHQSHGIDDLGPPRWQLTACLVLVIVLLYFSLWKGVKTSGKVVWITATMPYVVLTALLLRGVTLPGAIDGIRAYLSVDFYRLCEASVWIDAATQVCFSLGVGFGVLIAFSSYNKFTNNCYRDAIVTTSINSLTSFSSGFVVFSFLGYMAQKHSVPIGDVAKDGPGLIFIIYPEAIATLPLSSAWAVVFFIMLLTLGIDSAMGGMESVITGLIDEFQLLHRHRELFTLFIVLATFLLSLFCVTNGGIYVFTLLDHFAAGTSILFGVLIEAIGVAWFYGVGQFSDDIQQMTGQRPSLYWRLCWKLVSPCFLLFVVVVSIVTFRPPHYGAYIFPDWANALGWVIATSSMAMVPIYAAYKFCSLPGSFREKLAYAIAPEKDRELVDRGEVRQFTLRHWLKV
T3 sequence (Q01959 whole entry H547A): as the sequence (Q01959 whole entry) above, with H547A counted along it

Molecule: rTat1–86: recombinant HIV-1 transactivator of transcription protein, residues 1–86 (Diatheva)
- Tat-induced reduction of [3H]DA uptake relative to control (hDAT Y88F/H547A [1]; 140 nM rTat1–86, 20 min preincubation, Y88F/H547A, p > 0.05 vs control): attenuated
- Reduction of specific [3H]DA uptake relative to control (WT hDAT [2]; 140 nM rTat1–86, 20 min preincubation, WT hDAT): 31%

Molecule: [Cl-].[Cl-].[Zn+2] [Zn^2+, ZnCl2]
- Zn2+-induced increase in [3H]WIN 35,428 binding compared with WT hDAT (hDAT Y88F/H547A [3]): significantly diminished
- Reduction of [3H]DA uptake vs control (absence of Zn2+) (hDAT Y88F/H547A [1]; Zn2+ 10 µM, Y88F/H547A): 60%
- Reduction of [3H]DA uptake vs control (absence of Zn2+) (hDAT Y88F/H547A [1]; Zn2+ 100 µM, Y88F/H547A): 71%
- Increase of [3H]WIN35,428 binding vs control (absence of Zn2+) (WT hDAT [4]; Zn2+ 10 µM): 49%
- Increase of [3H]WIN35,428 binding vs control (absence of Zn2+) (WT hDAT [4]; Zn2+ 100 µM): 69%
- Reduction of [3H]DA uptake vs control (absence of Zn2+) (WT hDAT [2]; Zn2+ 10 µM, WT hDAT): ~ 40%
- Reduction of [3H]DA uptake vs control (absence of Zn2+) (WT hDAT [2]; Zn2+ 100 µM, WT hDAT): ~ 40%

Molecule: CC(N)Cc1ccccc1 (centres unmarked) [AMPH, amphetamine]
- Vmax of AMPH-stimulated [3H]DA efflux (hDAT Y88F/H547A [5]): 0.20 ± 0.03
- Vmax of AMPH-stimulated [3H]DA efflux (hDAT H547A [6]): 0.22 ± 0.04
- Vmax of AMPH-stimulated [3H]DA efflux (hDAT Y88F): 0.28 ± 0.06
- AMPH-induced decrease of Vmax of [3H]DA uptake vs control (hDAT Y88F/H547A [1]; AMPH 1 µM, Y88F/H547A): 42%
- Vmax of [3H]DA uptake in presence of AMPH (hDAT Y88F/H547A [1]; AMPH 1 µM, Y88F/H547A): 10.9 ± 1.33 pmol/min/10^5 cells
- Vmax of AMPH-stimulated [3H]DA efflux (hDAT Y88A): 0.29 ± 0.01
- Vmax of AMPH-stimulated [3H]DA efflux (WT hDAT [7]): 0.42 ± 0.03
- AMPH-induced decrease of Vmax of [3H]DA uptake vs control (WT hDAT [2]; AMPH 1 µM, WT hDAT): 32%
- Vmax of [3H]DA uptake in presence of AMPH (WT hDAT [2]; AMPH 1 µM, WT hDAT): 7.80 ± 0.97 pmol/min/10^5 cells

Molecule: NCCc1ccc(O)c(O)c1 [DA, Dopamine]
- Vmax of [3H]DA uptake (hDAT Y88F/K92M/H547A; PC12 cells): 0.5 ± 0.31 pmol/min/10^5 cells
- Km (hDAT Y88F/K92M/H547A; read-out: Km of [3H]DA uptake, PC12 cells): 1.89 ± 1.25 µM
- Vmax of [3H]DA uptake (hDAT Y88F/H547A [1]; AMPH experiment, in the absence of AMPH, Y88F/H547A): 18.9 ± 2.81 pmol/min/10^5 cells
- Vmax of [3H]DA uptake (hDAT Y88F/H547A [1]; PC12 cells, Y88F/H547A): 24.06 ± 4.32 pmol/min/10^5 cells
- Vmax of [3H]DA uptake (WT hDAT [2]; AMPH experiment, in the absence of AMPH, WT hDAT): 11.5 ± 0.94 pmol/min/10^5 cells
- Km (WT hDAT [2]; PC12 cells, WT hDAT): 1.21 ± 0.17 µM
- Vmax of [3H]DA uptake (WT hDAT [2]; PC12 cells, WT hDAT): 12.52 ± 0.68 pmol/min/10^5 cells

Molecule: CCCCCCCCCCCCCC(=O)O[C@@H]1[C@@H](C)[C@@]2(O)[C@@H](C=C(CO)C[C@]3(O)C(=O)C(C)=C[C@@H]23)[C@@H]2C(C)(C)[C@]12OC(C)=O [PMA, phorbol 12-myristate 13-acetate]
- Decrease in Vmax of DA uptake vs control (hDAT H547A [8]): 60%
- Decrease in Vmax of DA uptake vs control (WT hDAT [9]): 40%
- Reduction of Km of [3H]DA uptake vs control (hDAT Y88F/H547A [1]): 63%
- Reduction of Vmax of [3H]DA uptake vs vehicle control (hDAT Y88F/H547A [1]): 60%
- Reduction of Km of [3H]DA uptake vs control (WT hDAT [2]): 53%
- Reduction of Vmax of [3H]DA uptake vs vehicle control (WT hDAT [2]): 51%

B1: hDAT Y88F/H547A (Homo sapiens; H547A/Y88F) (protein)
chain: T1 sequence (Q01959 1-620 Y88F/H547A)
- Km [10]: 4.25 ± 1.05 µM

Reference: PMC6405875 (Scientific Reports, 2019)
